The source of these data is patent publication US7915291B2, “Hepatitis C virus inhibitors” (Bristol-Myers Squibb Company, priority 2002, dated 2011).

In one experiment the test system is HCV. The following applies: cited from earlier work.
Experiment [1] addresses HCV NS3/4A protease complex, BMS strain (UniProt P27958, C1454S/C1711G, species not given/STRAIN_BMS). The experiment can be described thus: Recombinant HCV NS3/4A protease complex FRET peptide assay (BMS strain). It counts as biochemical, HCV genotype 1a. A digest of the protocol:
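Percent inhibition taken from the linear-range fluorescence slope relative to uninhibited control, read kinetically for about 15 min at 25° C. Enzyme (2-3 nM, BMS NS3/4A complex, lysine-tailed, Ni-NTA purified) met compound for 1 min before 2 μM FRET depsipeptide substrate started cleavage.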

Experiment [2] deals with HCV replicon in Huh7 cells. Put plainly: HCV replicon cell-based assay. The following applies: Hepatitis C virus, Huh-7; HCV replicon, Huh7 cells; read-out: EC50 range. More on the design: species or system HCV strain 1B. (In general: A replicon is a self-replicating genome or part of one, used to study replication in cells.)
[3] abbreviates: NS3/4A BMS strain; read-out: IC50 range.
[4] abbreviates: read-out: IC50 range; NS3/4A BMS strain.

Where two headings read alike, the source gives them in different places.

A word on the IC50: it is the concentration that gives 50% inhibition. What is called EC50 is the concentration needed to bring the measured effect to its halfway point.

In the case of alpha-interferon and ribavirin, the “sustained efficacy, share of patients” value with HCV (HCV infected patients, combination therapy) is on record as 40%.
Consider pegylated alpha-interferon, for which the “clinical comparison as monotherapy” value in the experiment on HCV (HCV patients, monotherapy, recent clinical results) was “superior to unmodified alpha-interferon”.
For `C=C[C@@H]1C[C@]1(NC(=O)[C@@H]1C[C@@H](Oc2cc(-c3ccccc3)nc3c(C)noc23)CN1C(=O)[C@@H](NC(=O)OC(C)(C)C)C(C)(C)C)C(=O)NS(=O)(=O)C1CC1` [Compound 1], the IC50 in experiment [1] (setting [3]) is less than 100 nM. For the same compound, the EC50 in experiment [2] was less than 100 nM.
On to `C=C[C@@H]1C[C@]1(NC(=O)[C@@H]1C[C@@H](Oc2ncc(Cl)c3ccc(OC)cc23)CN1C(=O)[C@@H](NC(=O)OC(C)(C)C)C(C)(C)C)C(=O)NS(=O)(=O)C1CC1` [Compound 284], for which the IC50 in experiment [1] (setting [3]) was in the range of 100 to 1000 nM. The EC50 in experiment [2] was 10000 to 100000 nM.
For `C=C[C@@H]1C[C@]1(NC(=O)[C@@H]1CC(Oc2nccc3cc(OC)ccc23)CN1C(=O)[C@@H](NC(=O)NC(C)(C)CC(C)(C)C)C(C)(C)C)C(=O)NS(=O)(=O)C1CC1` (stereo partly drawn) [Compound 81], the IC50 in experiment [1] (setting [3]) was less than 100 nM. In addition, the EC50 in experiment [2] fell in the range of 100 to 1000 nM.
With `C=C[C@@H]1C[C@]1(NC(=O)[C@@H]1C[C@@H](Oc2nccc3cc(OC)ccc23)CN1C(=O)[C@@H](NC(=O)OC(C)(C)C)[C@@H](C)OCc1ccccc1)C(=O)NS(=O)(=O)C1CC1` [Compound 110], in experiment [1] (setting [3]), the IC50 is less than 100 nM. Further, in experiment [2], the EC50 is 100 to 1000 nM.
Regarding `C=CC1C[C@]1(NC(=O)[C@@H]1C[C@@H](Oc2nc(-c3ccncc3)cc3cc(OC)ccc23)CN1C(=O)[C@@H](NC(=O)OC(C)(C)C)C(C)(C)C)C(=O)NS(=O)(=O)C1CC1` (stereo partly drawn) [Compound 325], the 50% inhibitory concentration (IC50) in experiment [1] (setting [3]) is less than 100 nM. Moreover, the EC50 in experiment [2] is less than 100 nM.
With `C=CC1C[C@]1(NC(=O)[C@@H]1C[C@@H](Oc2ccnc3c(F)cccc23)CN1C(=O)[C@@H](NC(=O)OC(C)(C)C)C(C)(C)C)C(=O)NS(=O)(=O)C1CC1` (stereo partly drawn) [Compound 241, BOCNH-P3(L-t-BuGly)-P2[(4R)-(8-fluoroquinoline-4-oxo)-S -proline]-P1(1R,2S VinylAcca)-CONHSO2Cyclopropane], the half-maximal inhibitory concentration (IC50) in experiment [1] (setting [3]) was less than 100 nM. Moreover, the 50% effective concentration (EC50) in experiment [2] was less than 100 nM.
On to `C=C[C@@H]1C[C@]1(NC(=O)[C@@H]1C[C@@H](Oc2cc(-c3ccc(F)cc3)nc3c(C)noc23)CN1C(=O)[C@@H](NC(=O)OC(C)(C)C)C(C)(C)C)C(=O)NS(=O)(=O)C1CC1` [Compound 4], for which the IC50 in experiment [1] (setting [3]) is less than 100 nM. In addition, the 50% effective concentration (EC50) in experiment [2] is less than 100 nM.
In the case of `C=CC1C[C@]1(NC(=O)[C@@H]1C[C@@H](Oc2ccc3nccc(Cl)c3c2)CN1C(=O)[C@@H](NC(=O)OC(C)(C)C)C(C)(C)C)C(=O)NS(=O)(=O)C1CC1` (stereo partly drawn) [Compound 240, BOCNH-P3(L-t-BuGly)-P2[(4R)-(4-chloroquinoline-6-oxo)-S -proline]-P1(1R,2S VinylAcca)-CONHSO2Cyclopropane], in experiment [1] (setting [3]), the IC50 was less than 100 nM. In addition, the EC50 in experiment [2] was less than 100 nM.
With `C=C[C@@H]1C[C@]1(NC(=O)[C@@H]1C[C@@H](Oc2nccc3cc(Br)ccc23)CN1C(=O)[C@@H](NC(=O)OC(C)(C)C)C(C)(C)C)C(=O)NS(=O)(=O)C1CC1` [Compound 22], the IC50 in experiment [1] (setting [3]) was less than 100 nM. In addition, the EC50 in experiment [2] lay in the range of 100 to 1000 nM.
With `C=C[C@@H]1C[C@]1(NC(=O)[C@@H]1C[C@@H](Oc2nccc3cc(OC)ccc23)CN1C(=O)[C@@H](NC(=O)NC(C)(C)C)[C@H](C)OC)C(=O)NS(=O)(=O)C1CC1` [Compound 101], the half-inhibitory concentration (IC50) in experiment [1] (setting [4]) is less than 100 nM. In experiment [2], the EC50 was less than 100 nM.
Turning to `C=C[C@@H]1C[C@]1(NC(=O)[C@@H]1C[C@@H](Oc2ncc(OC)c3ccccc23)CN1C(=O)[C@@H](NC(=O)OC(C)(C)C)C(C)(C)C)C(=O)NS(=O)(=O)C1CC1` [Compound 251], the IC50 in experiment [1] (setting [3]) is less than 100 nM. In experiment [2], the EC50 was less than 100 nM.
Turning to `C=C[C@@H]1CC1(NC(=O)[C@@H]1CC(Oc2nccc3cc(OC)ccc23)CN1C(=O)[C@@H](NC(=O)NC1CCCC1)C(C)(C)C)C(=O)NS(=O)(=O)C1CC1` (stereo partly drawn) [Compound 75], the IC50 in experiment [1] (setting [3]) was less than 100 nM. Also, in experiment [2], the EC50 is less than 100 nM.
In the case of `C=C[C@@H]1C[C@]1(NC(=O)[C@@H]1CC(Oc2nccc3cc(OC)ccc23)CN1C(=O)[C@@H](NC(=O)OC1CCC1)C(C)(C)C)C(=O)NS(=O)(=O)C1CC1` (stereo partly drawn) [Compound 71], the half-inhibitory concentration (IC50) in experiment [1] (setting [3]) is less than 100 nM. In experiment [2], the EC50 was less than 100 nM.
As for `C=C[C@@H]1C[C@]1(NC(=O)[C@@H]1C[C@@H](Oc2nc(-c3ccncc3)cc3ccccc23)CN1C(=O)[C@@H](NC(=O)OC(C)(C)C)C(C)(C)C)C(=O)NS(=O)(=O)C1CC1` [Compound 27], in experiment [1] (setting [3]), the IC50 was less than 100 nM. Moreover, the EC50 in experiment [2] is less than 100 nM.
`C=C[C@@H]1C[C@]1(NC(=O)[C@@H]1C[C@@H](Oc2nccc3c(C)cccc23)CN1C(=O)[C@@H](NC(=O)OC(C)(C)C)C(C)(C)C)C(=O)NS(=O)(=O)C1CC1` [Compound 252]: in experiment [1] (setting [3]), the IC50 is less than 100 nM. Besides, the EC50 in experiment [2] was less than 100 nM.
For `C=C[C@@H]1C[C@]1(NC(=O)[C@@H]1C[C@@H](Oc2ccnc(-c3cccs3)c2)CN1C(=O)[C@@H](NC(=O)OC1CCCC1)C(C)(C)C)C(=O)NS(=O)(=O)C1CC1` [Compound 429], in experiment [1] (setting [3]), the IC50 was less than 100 nM. Also, the EC50 in experiment [2] is less than 100 nM.
Consider `C=C[C@@H]1C[C@]1(NC(=O)[C@@H]1C[C@@H](Oc2cc(-c3ccccn3)nc3cc(OC)ccc23)CN1C(=O)[C@@H](NC(=O)OC(C)(C)C)C(C)(C)C)C(=O)NS(=O)(=O)C1CC1` [Compound 379], for which, in experiment [1] (setting [3]), the IC50 is less than 100 nM. The EC50 in experiment [2] was less than 100 nM.
As for `C=CC1CC1(NC(=O)C1CC(Oc2nccc3c(OC(F)F)cccc23)CN1C(=O)C(NC(=O)OC(C)(C)C)C(C)(C)C)C(=O)NS(=O)(=O)C1CC1` (stereo not drawn) [Compound 285], the IC50 in experiment [1] (setting [3]) is less than 100 nM. In experiment [2], the EC50 was less than 100 nM.
For `C=C[C@@H]1C[C@]1(NC(=O)[C@@H]1C[C@@H](Oc2nccc3cc(OC)ccc23)CN1C(=O)[C@@H](NC(=O)O[C@H]1CCOC1)C(C)(C)C)C(=O)NS(=O)(=O)C1CC1` [Compound 19], the IC50 in experiment [1] (setting [3]) is less than 100 nM. In addition, in experiment [2], the EC50 is less than 100 nM.
In the case of `C=C[C@@H]1C[C@]1(NC(=O)[C@@H]1C[C@@H](Oc2nccc3c(F)cccc23)CN1C(=O)[C@@H](NC(=O)OC(C)(C)C)C(C)(C)C)C(=O)NS(=O)(=O)C1CC1` [Compound 255], the IC50 in experiment [1] (setting [3]) is less than 100 nM. The EC50 in experiment [2] was in the range of 100 to 1000 nM.
Consider `C=CC1C[C@]1(NC(=O)[C@@H]1C[C@@H](COc2cncc(-c3ccsc3)c2)CN1C(=O)[C@@H](NC(=O)OC)C(C)(C)C)C(=O)NS(=O)(=O)C1CC1` (stereo partly drawn) [Compound 347], for which, in experiment [1] (setting [4]), the IC50 was in the range of 100 to 1000 nM. The EC50 in experiment [2] is 10000 to 100000 nM.
`C=C[C@@H]1C[C@]1(NC(=O)[C@@H]1CC(Oc2nccc3cc(OC)ccc23)CN1C(=O)[C@@H](NC(=O)C1C2CC1C2)C(C)(C)C)C(=O)NS(=O)(=O)C1CC1` (stereo partly drawn) [Compound 62]: the concentration for half-maximal inhibition (IC50) in experiment [1] (setting [3]) is less than 100 nM. Moreover, the EC50 in experiment [2] is less than 100 nM.
Take `C=C[C@@H]1C[C@]1(NC(=O)[C@@H]1C[C@@H](Oc2cncc(-c3csc(C)n3)c2)CN1C(=O)[C@@H](NC(=O)OC(C)(C)C)C(C)(C)C)C(=O)NS(=O)(=O)C1CC1` [Compound 433]: in experiment [1] (setting [3]), the IC50 fell in the range of 100 to 1000 nM. Besides, in experiment [2], the EC50 is 1000 to 10000 nM.
For `C=CC1C[C@]1(NC(=O)[C@@H]1C[C@@H](Oc2nnc(OC(C)C)c3ccccc23)CN1C(=O)[C@@H](NC(=O)OC(C)(C)C)C(C)(C)C)C(=O)NS(=O)(=O)C1CC1` (stereo partly drawn) [Compound 199], in that order: less than 100 nM and 100 to 1000 nM.
For `C=C[C@@H]1C[C@]1(NC(=O)[C@@H]1C[C@@H](Oc2nc(-c3cnccn3)cc3ccccc23)CN1C(=O)[C@@H](NC(=O)OC(C)(C)C)C(C)(C)C)C(=O)NS(=O)(=O)C1CC1` [Compound 31], in that order: less than 100 nM and less than 100 nM.
In the case of `C=C[C@@H]1C[C@]1(NC(=O)[C@@H]1C[C@@H](Oc2nccc3c4c(ccc23)OCCO4)CN1C(=O)[C@@H](NC(=O)OC(C)(C)C)C(C)(C)C)C(=O)NS(=O)(=O)C1CC1` [Compound 286], the IC50 in experiment [1] (setting [3]) is less than 100 nM. For the same compound, the EC50 in experiment [2] was less than 100 nM.
